From PMC7891710, “The narrow-spectrum anthelmintic oxantel is a potent agonist of a novel acetylcholine receptor subtype in whipworms” (PLoS Pathogens, 2021)

Assays:
[1] = molecular target: T1, Tsu-ACR-16-like receptor (O-AChR) (Trichuris suis, UniProt A0A890W0I7); assay: two-electrode voltage clamp in Xenopus oocytes, agonist dose-response; type: cell-based
T1 construct: full-length Tsu-ACR-16-like (GenBank MT386096), homomeric channel co-expressed with Asu-RIC-3 in Xenopus laevis oocytes

[2] = molecular target: T1, Tsu-ACR-16-like receptor (O-AChR); assay: two-electrode voltage clamp in Xenopus oocytes, agonist dose-response (partial, Imax […]); type: cell-based

T1 sequence (A0A890W0I7 entry or part of it): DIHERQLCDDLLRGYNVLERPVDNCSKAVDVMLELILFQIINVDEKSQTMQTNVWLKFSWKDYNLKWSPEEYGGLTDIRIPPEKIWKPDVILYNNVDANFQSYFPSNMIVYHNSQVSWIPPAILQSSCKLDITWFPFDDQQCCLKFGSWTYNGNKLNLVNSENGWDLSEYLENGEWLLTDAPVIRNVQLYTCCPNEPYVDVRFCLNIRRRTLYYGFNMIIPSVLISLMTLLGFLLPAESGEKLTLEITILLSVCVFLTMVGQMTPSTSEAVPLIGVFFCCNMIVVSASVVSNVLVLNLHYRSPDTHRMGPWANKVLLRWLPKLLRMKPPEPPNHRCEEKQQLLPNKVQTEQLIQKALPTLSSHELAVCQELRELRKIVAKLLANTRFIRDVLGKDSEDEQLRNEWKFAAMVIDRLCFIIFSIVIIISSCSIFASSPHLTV

| Structure (SMILES) | EC50 [1] | EC50 [2] |
| --- | --- | --- |
| CN1CCCN=C1/C=C/c1cccc(O)c1 [oxa, oxantel] | 9.49 µM |  |
| CC(=O)OCC[N+](C)(C)C [ACh, acetylcholine] | 14.5 µM |  |
| CN1CCCN=C1/C=C/c1cccs1 [pyr, pyrantel] |  | 148 µM |
